# Laboratory results: ChEMBL document CHEMBL4715697, “Synthesis and biological activity of benzamide DNA minor groove binders” (2016)
# Experiments:
# Format in all cases: functional
# MDA-MB-435 = assay: Growth inhibition of human MDA-MB-435 cells assessed as cell growth at 0.1 uM incubated for 48 hrs by sulforhodamine B assay relative to control; conditions: read-out: Activity
# T47D [1] = assay: Growth inhibition of human T47D cells assessed as cell growth at 100 uM incubated for 48 hrs by sulforhodamine B assay relative to control; conditions: read-out: Activity
# SNB-75 = assay: Growth inhibition of human SNB-75 cells assessed as cell growth at 1 uM incubated for 48 hrs by sulforhodamine B assay relative to control; conditions: read-out: Activity
# MDA-MB-468 = assay: Growth inhibition of human MDA-MB-468 cells assessed as cell growth at 1 uM incubated for 48 hrs by sulforhodamine B assay relative to control; conditions: read-out: Activity
# SW-620 [2] = assay: Growth inhibition of human SW-620 cells assessed as cell growth at 1 uM incubated for 48 hrs by sulforhodamine B assay relative to control; conditions: read-out: Activity
# Hs-578T = assay: Growth inhibition of human Hs-578T cells incubated for 48 hrs by sulforhodamine B assay
# SK-MEL-2 [3] = assay: Growth inhibition of human SK-MEL-2 cells assessed as cell growth at 0.01 uM incubated for 48 hrs by sulforhodamine B assay relative to control; conditions: read-out: Activity
# TK-10 [4] = assay: Growth inhibition of human TK-10 cells incubated for 48 hrs by sulforhodamine B assay
# OVCAR-4 = assay: Growth inhibition of human OVCAR-4 cells incubated for 48 hrs by sulforhodamine B assay
# TK-10 [5] = assay: Growth inhibition of human TK-10 cells assessed as cell growth at 0.01 uM incubated for 48 hrs by sulforhodamine B assay relative to control; conditions: read-out: Activity
# UACC-257 = assay: Growth inhibition of human UACC-257 cells assessed as cell growth at 0.01 uM incubated for 48 hrs by sulforhodamine B assay relative to control; conditions: read-out: Activity
# BT-549 [6] = assay: Growth inhibition of human BT-549 cells assessed as cell growth at 1 uM incubated for 48 hrs by sulforhodamine B assay relative to control; conditions: read-out: Activity
# SW-620 [7] = assay: Growth inhibition of human SW-620 cells assessed as cell growth at 0.01 uM incubated for 48 hrs by sulforhodamine B assay relative to control; conditions: read-out: Activity
# HOP-62 = assay: Growth inhibition of human HOP-62 cells assessed as cell growth at 100 uM incubated for 48 hrs by sulforhodamine B assay relative to control; conditions: read-out: Activity
# RXF 393 = assay: Growth inhibition of human RXF 393 cells assessed as cell growth at 0.1 uM incubated for 48 hrs by sulforhodamine B assay relative to control; conditions: read-out: Activity
# DU-145 = assay: Growth inhibition of human DU-145 cells assessed as cell growth at 0.01 uM incubated for 48 hrs by sulforhodamine B assay relative to control; conditions: read-out: Activity
# SK-MEL-28 = assay: Growth inhibition of human SK-MEL-28 cells assessed as cell growth at 1 uM incubated for 48 hrs by sulforhodamine B assay relative to control; conditions: read-out: Activity
# HCT-116 = assay: Growth inhibition of human HCT-116 cells assessed as cell growth at 1 uM incubated for 48 hrs by sulforhodamine B assay relative to control; conditions: read-out: Activity
# A498 = assay: Growth inhibition of human A498 cells assessed as cell growth at 0.1 uM incubated for 48 hrs by sulforhodamine B assay relative to control; conditions: read-out: Activity
# LOX IMVI = assay: Growth inhibition of human LOX IMVI cells assessed as cell growth at 0.1 uM incubated for 48 hrs by sulforhodamine B assay relative to control; conditions: read-out: Activity
# SK-OV-3 = assay: Growth inhibition of human SK-OV-3 cells incubated for 48 hrs by sulforhodamine B assay
# ACHN = assay: Growth inhibition of human ACHN cells incubated for 48 hrs by sulforhodamine B assay
# K562 = assay: Growth inhibition of human K562 cells incubated for 48 hrs by sulforhodamine B assay
# UO-31 = assay: Growth inhibition of human UO-31 cells assessed as cell growth at 100 uM incubated for 48 hrs by sulforhodamine B assay relative to control; conditions: read-out: Activity
# BT-549 [8] = assay: Growth inhibition of human BT-549 cells assessed as cell growth at 0.01 uM incubated for 48 hrs by sulforhodamine B assay relative to control; conditions: read-out: Activity
# M14 = assay: Growth inhibition of human M14 cells incubated for 48 hrs by sulforhodamine B assay
# T47D [9] = assay: Growth inhibition of human T47D cells assessed as cell growth at 0.01 uM incubated for 48 hrs by sulforhodamine B assay relative to control; conditions: read-out: Activity
# SK-MEL-2 [10] = assay: Growth inhibition of human SK-MEL-2 cells assessed as cell growth at 1 uM incubated for 48 hrs by sulforhodamine B assay relative to control; conditions: read-out: Activity
# SF-539 = assay: Growth inhibition of human SF-539 cells assessed as cell growth at 1 uM incubated for 48 hrs by sulforhodamine B assay relative to control; conditions: read-out: Activity
# KM12 = assay: Growth inhibition of human KM12 cells assessed as cell growth at 100 uM incubated for 48 hrs by sulforhodamine B assay relative to control; conditions: read-out: Activity
# NCI-H522 = assay: Growth inhibition of human NCI-H522 cells incubated for 48 hrs by sulforhodamine B assay
# SF-268 = assay: Growth inhibition of human SF-268 cells assessed as cell growth at 1 uM incubated for 48 hrs by sulforhodamine B assay relative to control; conditions: read-out: Activity
# CCRF-CEM = assay: Growth inhibition of human CCRF-CEM cells assessed as cell growth at 0.1 uM incubated for 48 hrs by sulforhodamine B assay relative to control; conditions: read-out: Activity
# [11] = read-out: LC50 (the source's name)
# [12] = read-out: pLC50 (the source's name) (converted)
structure (smiles),measurement,setting,value
CC(=O)Nc1cc(CCl)cc(NC(=O)c2ccc(C(=O)Nc3cccc(NC(=O)CCCN(C)C)c3)cc2)c1,growth at 0.1 µM,MDA-MB-435,93%
same,growth at 100 µM,T47D [1],71%
same,growth at 1 µM,SNB-75,78%
same,growth at 1 µM,MDA-MB-468,86%
same,growth at 1 µM,SW-620 [2],107%
same,GI50,Hs-578T; read-out: GI50,> 100 µM
same,CC50,Hs-578T; [11],> 100 µM
same,TGI,Hs-578T; read-out: TGI,> 100 µM
same,GI50,Hs-578T; read-out: pGI50 (converted),> 100 µM
same,CC50,Hs-578T; [12],> 100 µM
same,TGI,Hs-578T; read-out: pTGI,> 100 µM
same,growth at 0.01 µM,SK-MEL-2 [3],107%
same,GI50,TK-10 [4]; read-out: GI50,> 100 µM
same,CC50,TK-10 [4]; [11],> 100 µM
same,TGI,TK-10 [4]; read-out: TGI,> 100 µM
same,GI50,TK-10 [4]; read-out: pGI50 (converted),> 100 µM
same,CC50,TK-10 [4]; [12],> 100 µM
same,TGI,TK-10 [4]; read-out: pTGI,> 100 µM
same,GI50,OVCAR-4; read-out: GI50,> 100 µM
same,LC50 (concentration killing 50% of cells),OVCAR-4; read-out: LC50,> 100 µM
same,TGI,OVCAR-4; read-out: TGI,> 100 µM
same,GI50,OVCAR-4; read-out: pGI50 (converted),> 100 µM
same,LC50 (concentration killing 50% of cells),OVCAR-4; read-out: pLC50 (converted),> 100 µM
same,TGI,OVCAR-4; read-out: pTGI,> 100 µM
same,growth at 0.01 µM,TK-10 [5],99%
same,growth at 0.01 µM,UACC-257,97%
same,growth at 1 µM,BT-549 [6],108%
same,growth at 0.01 µM,SW-620 [7],106%
same,growth at 100 µM,HOP-62,95%
same,growth at 0.1 µM,RXF 393,94%
same,growth at 0.01 µM,DU-145,106%
same,growth at 1 µM,SK-MEL-28,96%
same,growth at 1 µM,HCT-116,107%
same,growth at 0.1 µM,A498,73%
same,growth at 0.1 µM,LOX IMVI,92%
same,GI50,SK-OV-3; read-out: GI50,> 100 µM
same,LC50 (concentration killing 50% of cells),SK-OV-3; read-out: LC50,> 100 µM
same,TGI,SK-OV-3; read-out: TGI,> 100 µM
same,GI50,SK-OV-3; read-out: pGI50 (converted),> 100 µM
same,LC50 (concentration killing 50% of cells),SK-OV-3; read-out: pLC50 (converted),> 100 µM
same,TGI,SK-OV-3; read-out: pTGI,> 100 µM
same,GI50,ACHN; read-out: GI50,> 100 µM
same,CC50,ACHN; [11],> 100 µM
same,TGI,ACHN; read-out: TGI,> 100 µM
same,GI50,ACHN; read-out: pGI50 (converted),> 100 µM
same,CC50,ACHN; [12],> 100 µM
same,TGI,ACHN; read-out: pTGI,> 100 µM
same,GI50,K562; read-out: GI50,> 100 µM
same,CC50,K562; [11],> 100 µM
same,TGI,K562; read-out: TGI,> 100 µM
same,GI50,K562; read-out: pGI50 (converted),> 100 µM
same,CC50,K562; [12],> 100 µM
same,TGI,K562; read-out: pTGI,> 100 µM
same,growth at 100 µM,UO-31,113%
same,growth at 0.01 µM,BT-549 [8],104%
same,GI50,M14; read-out: GI50,> 100 µM
same,CC50,M14; [11],> 100 µM
same,TGI,M14; read-out: TGI,> 100 µM
same,GI50,M14; read-out: pGI50 (converted),> 100 µM
same,CC50,M14; [12],> 100 µM
same,TGI,M14; read-out: pTGI,> 100 µM
same,growth at 0.01 µM,T47D [9],106%
same,growth at 1 µM,SK-MEL-2 [10],109%
same,growth at 1 µM,SF-539,104%
same,growth at 100 µM,KM12,88%
same,GI50,NCI-H522; read-out: GI50,> 100 µM
same,CC50,NCI-H522; [11],> 100 µM
same,TGI,NCI-H522; read-out: TGI,> 100 µM
same,GI50,NCI-H522; read-out: pGI50 (converted),> 100 µM
same,CC50,NCI-H522; [12],> 100 µM
same,TGI,NCI-H522; read-out: pTGI,> 100 µM
same,growth at 1 µM,SF-268,101%
same,growth at 0.1 µM,CCRF-CEM,113%
